How the values were obtained:
[1] = Feeding study in dietary-induced obese rats: food intake and body weight; type: in vivo, female Wistar rats; details: end of 28 day treatment, Figure 3
Experimental: The experiment was performed on female Wistar rats (originally in the weight range 250-300 g). The rats were housed in pairs in polypropylene cages with solid floors and sawdust bedding at a temperature of 21±4°C and 55±20% humidity. Animals were maintained on a reverse phase light-dark cycle (lights off for 8 h from 09.30-17.30 h) during which time the room was illuminated by red light. Animals had free access to powdered high fat diet (VRF1 plus 20% lard), ground chocolate, ground peanuts and tap water at all times. The three different diets were contained in separate glass feeding jars with aluminum lids with a 3-4 cm hole cut in it to allow access to the food. Animals were housed in pairs for twelve weeks for the induction of obesity. Animals were then housed singly in polypropylene cages with wire grid floors to enable the food intake of each rat to be recorded. Polypropylene trays with cage pads were placed beneath each cage to detect any food spillage. Animals were accustomed to these new conditions (individual housing and the wire-grid floor cages) for at least 14 days before the start of the baseline readings. […] Food intake and body weight were measured once daily. […] Thus, means were adjusted for differences in body weight between the groups on Day 1 and standard errors of the mean (SEM) were calculated from the residuals of the statistical model. […]

[2] = Plasma insulin assay in dietary-induced obese rats; type: in vivo, female Wistar rats; details: Figure 6
Experimental: (§1) The experiment was performed on female Wistar rats (originally in the weight range 250-300 g). The rats were housed in pairs in polypropylene cages with solid floors and sawdust bedding at a temperature of 21±4°C and 55±20% humidity. Animals were maintained on a reverse phase light-dark cycle (lights off for 8 h from 09.30-17.30 h) during which time the room was illuminated by red light. Animals had free access to powdered high fat diet (VRF1 plus 20% lard), ground chocolate, ground peanuts and tap water at all times. The three different diets were contained in separate glass feeding jars with aluminum lids with a 3-4 cm hole cut in it to allow access to the food. Animals were housed in pairs for twelve weeks for the induction of obesity. Animals were then housed singly in polypropylene cages with wire grid floors to enable the food intake of each rat to be recorded. […] Animals were accustomed to these new conditions (individual housing and the wire-grid floor cages) for at least 14 days before the start of the baseline readings. […] Plasma insulin concentration was determined using Mercodia ultrasensitive rat insulin ELISA kits according to the manufacturers 50 µl sample protocol. […] Optical density at 450 nm was determined using a Molecular Devices VERSAmax tunable microplate reader and readings transferred to GraphPad Prism. […]

[3] = Determination of carcass fat content in dietary-induced obese rats; type: in vivo, female Wistar rats; details: g per rat, Figure 4
Experimental: The experiment was performed on female Wistar rats (originally in the weight range 250-300 g). The rats were housed in pairs in polypropylene cages with solid floors and sawdust bedding at a temperature of 21±4°C and 55±20% humidity. Animals were maintained on a reverse phase light-dark cycle (lights off for 8 h from 09.30-17.30 h) during which time the room was illuminated by red light. Animals had free access to powdered high fat diet (VRF1 plus 20% lard), ground chocolate, ground peanuts and tap water at all times. The three different diets were contained in separate glass feeding jars with aluminum lids with a 3-4 cm hole cut in it to allow access to the food. Animals were housed in pairs for twelve weeks for the induction of obesity. Animals were then housed singly in polypropylene cages with wire grid floors to enable the food intake of each rat to be recorded. […] Animals were accustomed to these new conditions (individual housing and the wire-grid floor cages) for at least 14 days before the start of the baseline readings. […] Percentage fat in the freeze-dried sample was calculated as follows: % fat = [100 × (final cup weight-initial cup weight)]/sample weight [formula] Percentage fat in the original sample was calculated using the % water as follows: % fat in original sample = % fat[(100-%water)/100] […]

[4] = Plasma leptin assay in dietary-induced obese rats; type: in vivo, female Wistar rats; details: Figure 5
Experimental: as §1, with “leptin” for “insulin”, “Assay Designs” for “Mercodia ultrasensitive”, “leptin enzyme immunometric assay” for “insulin ELISA”, “kits (Cat No. 900-015)” for “kits”, “manufacturer's regular” for “manufacturers 50 µl sample”

[5] = target: T1, recombinant human cannabinoid 1 receptor (CB1) (Homo sapiens, UniProt P21554); assay: In vitro determination of antagonism to CB1-receptor, [35S]GTPγS binding assay; type: biochemical; details: compound 1 µM versus agonist WIN 55,212-2; 100 % = maximal antagonism with Rimonabant (1 µM)
T1 construct: expressed in transfected cells
Experimental: The reaction is performed in 96-well plates. […] Radioactivity is determined using a Wallac Microbeta Trilux. Each experiment is performed at least in duplicate.
The average of basal [^35S]GTPγS binding is subtracted from all binding data.

Solubility = type: physicochemical
Herg channel = Herg channel (Homo sapiens, UniProt Q12809); assay: Herg channel affinity; details: low risk of prolongation of the QT-interval expected
[6] = Stability of the crystalline form; type: physicochemical; details: under certain conditions, especially around room temperature, and/or over time
[7] = 10 mg/kg po once daily for 28 days
[8] = 30 mg/kg po once daily for 28 days

Sequence of Herg channel (Q12809 whole entry): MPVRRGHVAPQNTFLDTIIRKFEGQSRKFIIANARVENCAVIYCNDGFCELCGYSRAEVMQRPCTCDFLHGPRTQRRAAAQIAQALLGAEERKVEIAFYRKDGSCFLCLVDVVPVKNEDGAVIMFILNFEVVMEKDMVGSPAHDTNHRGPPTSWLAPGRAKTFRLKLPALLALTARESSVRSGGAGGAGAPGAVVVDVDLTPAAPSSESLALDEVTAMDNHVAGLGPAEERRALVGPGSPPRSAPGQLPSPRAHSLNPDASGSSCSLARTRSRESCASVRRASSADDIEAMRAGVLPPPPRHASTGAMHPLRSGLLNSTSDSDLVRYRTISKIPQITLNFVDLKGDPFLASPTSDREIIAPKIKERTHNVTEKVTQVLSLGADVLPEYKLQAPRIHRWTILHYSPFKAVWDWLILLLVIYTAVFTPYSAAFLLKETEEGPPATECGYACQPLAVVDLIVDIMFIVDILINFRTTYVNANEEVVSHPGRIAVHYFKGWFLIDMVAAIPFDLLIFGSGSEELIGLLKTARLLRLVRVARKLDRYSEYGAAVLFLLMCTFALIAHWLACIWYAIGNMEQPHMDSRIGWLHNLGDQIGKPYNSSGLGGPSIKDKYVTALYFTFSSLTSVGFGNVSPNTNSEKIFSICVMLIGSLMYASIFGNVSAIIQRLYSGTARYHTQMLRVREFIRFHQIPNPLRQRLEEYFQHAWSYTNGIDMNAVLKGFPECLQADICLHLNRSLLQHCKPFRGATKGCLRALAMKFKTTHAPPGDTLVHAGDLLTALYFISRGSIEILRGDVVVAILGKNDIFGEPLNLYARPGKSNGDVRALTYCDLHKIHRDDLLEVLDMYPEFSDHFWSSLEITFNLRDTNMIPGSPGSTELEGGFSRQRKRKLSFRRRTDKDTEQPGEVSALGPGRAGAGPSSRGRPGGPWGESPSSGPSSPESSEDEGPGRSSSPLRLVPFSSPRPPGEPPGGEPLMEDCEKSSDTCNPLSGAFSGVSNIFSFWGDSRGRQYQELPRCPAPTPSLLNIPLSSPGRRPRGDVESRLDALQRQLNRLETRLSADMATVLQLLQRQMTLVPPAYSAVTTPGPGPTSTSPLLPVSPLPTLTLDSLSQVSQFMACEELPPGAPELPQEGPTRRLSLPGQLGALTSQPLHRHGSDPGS
T1 sequence (P21554 whole entry): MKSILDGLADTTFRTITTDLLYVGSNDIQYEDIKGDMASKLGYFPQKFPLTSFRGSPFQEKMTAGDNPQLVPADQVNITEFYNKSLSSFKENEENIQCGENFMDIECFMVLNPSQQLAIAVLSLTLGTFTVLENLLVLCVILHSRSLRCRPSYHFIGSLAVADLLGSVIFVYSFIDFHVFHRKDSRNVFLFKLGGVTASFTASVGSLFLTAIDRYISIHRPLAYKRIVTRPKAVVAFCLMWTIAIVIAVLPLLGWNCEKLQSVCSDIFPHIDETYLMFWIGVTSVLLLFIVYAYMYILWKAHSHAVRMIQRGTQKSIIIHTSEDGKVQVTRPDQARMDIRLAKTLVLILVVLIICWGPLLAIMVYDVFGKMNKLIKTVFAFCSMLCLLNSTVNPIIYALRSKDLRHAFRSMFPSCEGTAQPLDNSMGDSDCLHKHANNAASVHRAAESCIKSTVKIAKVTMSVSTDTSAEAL

Question: Which results are given for `O=C(NN1CCCCC1)C1=NN(c2ccc(Cl)cc2Cl)[C@@H](c2ccc(Cl)cc2)C1` [Compound A, (R)-N-piperidinyl-5-(4-chlorophenyl)-1-(2,4-dichlorophenyl)-4,5-dihydro-1H-pyrazole-3-carboxamide]?
Answer: body weights lower than those of the vehicle-treated controls ([1]; 10 mg/kg po once daily): 12.0%; body weights lower than those of the vehicle-treated controls ([1]; 30 mg/kg po once daily): 19.0%; decrease of plasma insulin levels compared to the vehicle-treated control group [2, 7]: 38.9%; decrease of plasma insulin levels compared to the vehicle-treated control group [2, 8]: 41.8%; decrease in body fat compared to the vehicle-treated control group [3, 7]: 42.8 g; decrease in body fat compared to the vehicle-treated control group [3, 8]: 67.8 g; decrease of plasma leptin levels compared to the vehicle-treated control group [4, 7]: 36.1%; decrease of plasma leptin levels compared to the vehicle-treated control group [4, 8]: 61.7%; Antagonism [%] [5]: 106%

Question: For `O=C(NN1CCCCC1)C1=NN(c2ccc(Cl)cc2Cl)[C@@H](c2ccc(Cl)cc2)C1` [α-Polymorph, α-Polymorph of (R)-N-piperidinyl-5-(4-chlorophenyl)-1-(2,4-dichlorophenyl)-4,5-dihydro-1H-pyrazole-3-carboxamide], which solubility (Solubility) is on record?
Answer: relatively good

Question: And the Herg channel affinity (Herg channel)?
Answer: relatively weak

Question: And the stability [6]?
Answer: good stability

Source: patent publication EP1944293A1, “Alpha-Polymorph of a substituted pyrazoline, its preparation and use as medicaments” (Laboratorios del Dr. Esteve S.A., priority 2007, dated 2008)
